Assay results reported in patent US8802664B2 (Bioproject, priority 2010, dated 2014).
Structures can show the parent of a compound that is named as a salt.

| Compound | melting point [°C] |
| --- | --- |
| CN1CCC(OC(c2cccc(OCc3ccccc3)c2)c2nc3ccccc3s2)CC1 (stereo not shown) (as salt: oxalate) [Example 45, 2-[(3-benzyloxyphenyl)(1-methylpiperidin-4-yloxy)methyl]benzothiazole] | 52 |
| CCCCOc1cccc(C(NC2CCN(C)CC2)c2nc3ccccc3[nH]2)c1 (stereo not shown) (as salt: oxalate) [Example 69, [(1H-benzimidazol-2-yl)(3-butoxyphenyl)methyl](1-methylpiperidin-4-yl)amine] | 137 |
| CCCCCCc1cccc(C(NC2CCN(C)CC2)c2nc3ccccc3[nH]2)c1 (stereo not shown) (as salt: oxalate) [Example 76, [(1H-benzimidazol-2-yl)(3-hexylphenyl)methyl](1-methylpiperidin-4-yl)amine] | 115 |
| Cc1cccc(C(NC2CCN(C)CC2)c2nc3ccccc3[nH]2)c1 (stereo not shown) (as salt: oxalate) [Example 84, [(1H-benzimidazol-2-yl)(m-tolyl)methyl](1-methylpiperidin-4-yl)amine] | 132 |
| CN1CCC(NC(c2cccc(Oc3ccccc3)c2)c2nc3ccccc3[nH]2)CC1 (stereo not shown) (as salt: oxalate) [Example 85, [(1H-benzimidazol-2-yl)(3-phenoxyphenyl)methyl](1-methylpiperidin-4-yl)amine] | 144 |
| CCCCOc1cccc(C(NC2CCN(C)CC2)c2nc3ccccc3s2)c1 (stereo not shown) (as salt: oxalate) [Example 91, [benzothiazol-2-yl(3-butoxyphenyl)methyl](1-methylpiperidin-4-yl)amine] | 176 |
| CCCCOc1cccc(C(OC2CCN(C)CC2)c2nc3ccccc3s2)c1 (stereo not shown) (as salt: oxalate) [Example 92, 2-[(3-butoxyphenyl)(1-methylpiperidin-4-yloxy)methyl]benzothiazole] | 135 |
| CCCCCOc1cccc(C(NC2CCN(C)CC2)c2nc3ccccc3[nH]2)c1 (stereo not shown) (as salt: oxalate) [Example 95, [(1H-benzimidazol-2-yl)(3-pentyloxyphenyl)methyl](1-methylpiperidin-4-yl)amine] | 128 |
| CN1CCC(NC(c2cccc(SCc3ccccc3)c2)c2nc3ccccc3[nH]2)CC1 (stereo not shown) (as salt: oxalate) [Example 104, [(1H-benzimidazol-2-yl)(3-benzylsulfanylphenyl)methyl](1-methylpiperidin-4-yl)amine] | 127 |
| CN1CCC(NC(c2cccc(OCc3cccc(F)c3)c2)c2nc3ccccc3[nH]2)CC1 (stereo not shown) (as salt: oxalate) [Example 105, {(1H-benzimidazol-2-yl)[3-(3-fluorobenzyloxy)phenyl]methyl}(1-methylpiperidin-4-yl)amine] | 116 |
| CN1CCC(NC(c2cccc(OCCOc3ccccc3)c2)c2nc3ccccc3[nH]2)CC1 (stereo not shown) (as salt: oxalate) [Example 106, {(1H-benzimidazol-2-yl)[3-(2-phenoxyethoxy)phenyl]methyl}(1-methylpiperidin-4-yl)amine] | 140 |
| CC(=O)c1cccc(-c2cccc(C(OC3CCN(C)CC3)c3nc4ccccc4[nH]3)c2)c1 (stereo not shown) (as salt: oxalate) [Example 110, 1-{3′-[(1H-benzimidazol-2-yl)(1-methylpiperidin-4-yloxy)methyl]biphenyl-3-yl}ethanone] | 140 |
| CSc1cccc(C(NC2CCN(C)CC2)c2nc3ccccc3s2)c1 (stereo not shown) (as salt: oxalate) [Example 111, [benzothiazol-2-yl(3-methylsulfanylphenyl)methyl](1-methylpiperidin-4-yl)amine] | 85 |
| C=CCOc1cccc(C(NC2CCN(C)CC2)c2nc3ccccc3[nH]2)c1 (stereo not shown) (as salt: oxalate) [Example 112, [(3-allyloxyphenyl)(1H-benzimidazol-2-yl)methyl](1-methylpiperidin-4-yl)amine] | 125 |
| CSc1cccc(-c2cccc(C(OC3CCN(C)CC3)c3nc4ccccc4[nH]3)c2)c1 (stereo not shown) (as salt: oxalate) [Example 116, 2-[(1-methylpiperidin-4-yloxy)(3′-methylsulfanylbiphenyl-3-yl)methyl]-1H-benzimidazole] | 80 |
| CN1CCC(OC(c2cccc(-c3ccccc3Cl)c2)c2nc3ccccc3[nH]2)CC1 (stereo not shown) (as salt: oxalate) [Example 121, 2-[(2′-Chlorobiphenyl-3-yl)(1-methylpiperidin-4-yloxy)methyl]-1H-benzimidazole] | 130 |
| COc1cccc(COc2cccc(C(NC3CCN(C)CC3)c3nc4ccccc4[nH]3)c2)c1 (stereo not shown) (as salt: oxalate) [Example 125, {(1H-benzimidazol-2-yl)[3-(3-methoxybenzyloxy)phenyl]methyl}(1-methylpiperidin-4-yl)amine] | 135 |
| Cc1ccccc1COc1cccc(C(NC2CCN(C)CC2)c2nc3ccccc3[nH]2)c1 (stereo not shown) (as salt: oxalate) [Example 129, {(1H-benzimidazol-2-yl)[3-(2-methylbenzyloxy)phenyl]methyl}(1-methylpiperidin-4-yl)amine] | 121 |

Continued, values first:

| melting point [°C] | Compound |
| --- | --- |
| 157 | COc1cc(F)cc(C(NC2CCN(C)CC2)c2nc3ccccc3s2)c1 (stereo not shown) (as salt: oxalate) [Example 43, [benzothiazol-2-yl(3-fluoro-5-methoxyphenyl)methyl](1-methylpiperidin-4-yl)amine] |
| 153 | CN1CCC(OC(c2ccc3occc3c2)c2nc3ccccc3s2)CC1 (stereo not shown) (as salt: oxalate) [Example 46, 2-[benzofuran-5-yl(1-methylpiperidin-4-yloxy)methyl]benzothiazole] |
| 84 | CCOc1cccc(C(OC2CCN(C)CC2)c2nc3ccccc3s2)c1 (stereo not shown) (as salt: oxalate) [Example 47, 2-[(3-ethoxyphenyl)(1-methylpiperidin-4-yloxy)methyl]benzothiazole] |
| 188 to 195 | CN1CCC(NC(c2cccc(I)c2)c2nc3ccccc3s2)CC1 (stereo not shown) (as salt: oxalate) [Example 48, [benzothiazol-2-yl(3-iodophenyl)methyl](1-methylpiperidin-4-yl)amine] |
| 68 | CC(C)Oc1cccc(C(OC2CCN(C)CC2)c2nc3ccccc3s2)c1 (stereo not shown) (as salt: oxalate) [Example 55, 2-[(3-isopropoxyphenyl)(1-methylpiperidin-4-yloxy)methyl]benzothiazole] |
| 155 | CN1CCC(NC(c2cccc(F)c2)c2nc3ccccc3[nH]2)CC1 (stereo not shown) (as salt: oxalate) [Example 74, [(1H-benzimidazol-2-yl)(3-fluorophenyl)methyl](1-methylpiperidin-4-yl)amine] |
| 96 | CC(C)Oc1cccc(C(NC2CCN(C)CC2)c2nc3ccccc3s2)c1 (stereo not shown) (as salt: oxalate) [Example 88, [benzothiazol-2-yl(3-isopropoxyphenyl)methyl](1-methylpiperidin-4-yl)amine] |
| 98 | CN1CCC(NC(c2cccc(OCC3CCCCC3)c2)c2nc3ccccc3s2)CC1 (stereo not shown) (as salt: oxalate) [Example 93, [benzothiazol-2-yl(3-cyclohexylmethoxyphenyl)methyl](1-methylpiperidin-4-yl)amine] |
| 112 | CN1CCC(NC(c2cccc(-c3ccccc3)c2)c2nc3ccccc3s2)CC1 (stereo not shown) (as salt: oxalate) [Example 102, (benzothiazol-2-ylbiphenyl-3-ylmethyl)(1-methylpiperidin-4-yl)amine] |
| 140 | CN1CCC(NC(c2cccc(OCc3ccc(F)cc3)c2)c2nc3ccccc3[nH]2)CC1 (stereo not shown) (as salt: oxalate) [Example 103, {(1H-benzimidazol-2-yl)[3-(4-fluorobenzyloxy)phenyl]methyl}(1-methylpiperidin-4-yl)amine] |
| 50 | CN1CCC(NC(c2cccc(SCc3ccccc3)c2)c2nc3ccccc3s2)CC1 (stereo not shown) (as salt: oxalate) [Example 107, [benzothiazol-2-yl(3-benzylsulfanylphenyl)methyl](1-methylpiperidin-4-yl)amine] |
| 115 | CC(=O)c1ccc(-c2cccc(C(OC3CCN(C)CC3)c3nc4ccccc4[nH]3)c2)cc1 (stereo not shown) (as salt: oxalate) [Example 108, 1-{3′-[(1H-benzimidazol-2-yl)(1-methylpiperidin-4-yloxy)methyl]biphenyl-4-yl}ethanone] |
| 120 | CN1CCC(OC(c2cccc(-c3cccc(F)c3)c2)c2nc3ccccc3[nH]2)CC1 (stereo not shown) (as salt: oxalate) [Example 109, 2-[(3′-fluoro-biphenyl-3-yl)(1-methylpiperidin-4-yloxy)methyl]-1H-benzimidazole] |
| 118 | CN1CCC(NC(c2cccc(OCc3ccccc3F)c2)c2nc3ccccc3[nH]2)CC1 (stereo not shown) (as salt: oxalate) [Example 113, {(1H-benzimidazol-2-yl)[3-(2-fluorobenzyloxy)phenyl]methyl}(1-methylpiperidin-4-yl)amine] |
| 100 | CN1CCC(OC(c2cccc(-c3ccc(F)cc3)c2)c2nc3ccccc3[nH]2)CC1 (stereo not shown) (as salt: oxalate) [Example 115, 2-[(4′-fluorobiphenyl-3-yl)(1-methylpiperidin-4-yloxy)methyl]-1H-benzimidazole] |
| 150 | CN1CCC(OC(c2cccc(-c3ccc(Cl)c(Cl)c3)c2)c2nc3ccccc3[nH]2)CC1 (stereo not shown) (as salt: oxalate) [Example 122, 2-[(3′,4′-dichlorobiphenyl-3-yl)(1-methylpiperidin-4-yloxy)methyl]-1H-benzimidazole] |
| 206 to 207 | CN1CCC(OC(c2cccc(-c3ccccc3CO)c2)c2nc3ccccc3s2)CC1 (stereo not shown) (as salt: oxalate) [Example 127, {3′-[benzothiazol-2-yl(1-methylpiperidin-4-yloxy)methyl]biphenyl-2-yl}methanol] |
| 89 | CN1CCC(OC(c2cccc(-n3cccn3)c2)c2nc3ccccc3s2)CC1 (stereo not shown) (as salt: oxalate) [Example 147, 2-[(1-methylpiperidin-4-yloxy)(3-pyrazol-1-ylphenyl)methyl]benzothiazole] |
| 159 | CN1CCC(NC(c2cccc(OCc3cc(F)ccc3F)c2)c2nc3ccccc3[nH]2)CC1 (stereo not shown) (as salt: oxalate) [Example 149, {(1H-benzimidazol-2-yl)[3-(2,5-difluoro-benzyloxy)phenyl]methyl}(1-methylpiperidin-4-yl)amine] |
